Measurements as given in US3948928A, “3-Substituted-1,2-benzisoxazoles and pharmaceutically acceptable acid addition salts thereof” (Dainippon Pharmaceutical Co., Ltd., priority 1972, dated 1976).
Counter-ions that a name gives are not always drawn.

Tests used:
renal hypertensive rats = assay: Anti-hypertensive activity in renal hypertensive rats (plethysmographic tail blood pressure); type: in vivo, male Wistar rats
Excerpt: Male Wistar rats weighing 180 to 200 g and having a blood pressure of 125 to 145 mmHg were anesthetized with ether and the left abdominal wall of rats was cut and thereby the renal artery was laid bare. The origin part of the aorta was stripped off and to the renal artery was fixed a silver clip which was made by two-folding at interval of 0.2 mm a silver thin board having 2.0 mm in width, 6.0 mm in length and 0.3 mm in thickness, and then the abdominal wall was stitched. At 2 months after the operation, the blood pressure of the rats was increased to 150 or more mmHg. The rats thus treated were used in the test as the renal hypertensive rats.
The blood pressure was measured before the administration of test compounds and at 0.5, 1, 3, 5, 7, 9 and 24 hours after the administration of the test compounds.

[1] = test system: spontaneously hypertensive rats; assay: Anti-hypertensive activity in spontaneously hypertensive rats; type: in vivo, male Wistar rats
Experimental: The blood pressure was measured by plethysmographic method, in which the blood pressure was measured indirectly by using a tail of animal without anesthesia. That is, after being warmed at 38°C for 10 minutes, a tail of rat was pressed by cuff and then the pressure was relieved and thereby the blood flow started again to increase the volume of tail. The blood pressure at that time was measured.
Spontaneously hypertensive rats were prepared by using male Wistar rats weighing 300 to 350 g and being 20 or more weeks of age. […] The blood pressure in rats was measured at 0.5, 1, 3, 5, 7, 24 and 30 hours after the administration of the test compounds in the same manner as described in Test 3, (B).

[2] = test system: hypothermy induced by reserpine; assay: Anti-reserpine activity: antagonism against the hypothermy induced by reserpine; type: in vivo, male dd YS-mice; conditions: 100 mg/kg orally; for Inhibition (%): reserpine 5 mg/kg i.p. simultaneously, rectal temperature at 4 hours; for Ratio to AMT: inhibition relative to amitriptyline (AMT)
Experimental: The anti-reserpine activity of the test compounds was studied by the antagonism against the hypothermy induced by reserpine on male dd YS-mice, weighing 18 to 20 g, each group being 5 mice. The test compounds were orally administered in a dose of 100 mg/kg and simultaneously reserpine was intraperitoneally administered in a dose of 5 mg/kg to the mice. The body temperature was measured on the rectal temperature of the mice at 4 hours after the administration of the test compounds by thermister BMG III-130, made by Shibaura Electric Co., Ltd.

[3] = test system: 1-dopa potentiating activity; assay: 1-Dopa potentiating activity (mortality of mice given 1-dopa); type: in vivo, dd YS-mice; conditions: one hour before 1-dopa 300 mg/kg i.p.
Experimental: To dd YS-mice, weighing 18 to 20 g (each group being 10 mice) was intraperitoneally administered 300 mg/kg of 1-dopa: 3-(3,4-dihydroxyphenyl)-L-alanine. The mice were entered into a plastic cage having 15 × 15 cm^2 in size and allowed to live gregariously and then the symptom of the mice was observed. The test compounds were orally administered to the mice at one hour before the administration of 1-dopa. The activity of the test compounds was calculated by the mortality.

| Molecule | Blood pressure Decrease percent (renal hypertensive rats; 100 mg/kg p.o.) | Blood pressure Duration (renal hypertensive rats; 100 mg/kg p.o.) | Blood pressure Peak time (renal hypertensive rats; 100 mg/kg p.o.) | Inhibition (%) [2] | Ratio to AMT [2] | also measured |
| --- | --- | --- | --- | --- | --- | --- |
| Cl.N=C(N)Cc1noc2ccccc12 [Test compound 2 (Table 3), 1,2-Benzisoxazole-3-acetamidine hydrochloride] | 34.4% | 30 h | 1 to 3 h |  |  |  |
| N=C(Cc1noc2ccccc12)N1CCN(c2ccccc2)CC1 [Test compound 4 (Table 3), 1-Phenyl-4-(1,2-benzisoxazole-3-acetimidoyl)piperazine hydrochloride] | 10.7% | 30 h | 3 h |  |  |  |
| Cl.Oc1ccc2c(CC3=NCCN3)noc2c1 [Test compound 7 (Table 3), 6-Hydroxy-3-(2-imidazolin-2-yl)methyl-1,2-benzisoxazole hydrochloride] |  |  |  |  |  | Blood pressure Decrease percent ([1]; 10 mg/kg p.o.): 14%; Blood pressure Duration ([1]; 10 mg/kg p.o.): 9 h; Blood pressure Peak time ([1]; 10 mg/kg p.o.): 7.0 h |
| Cl.Fc1ccc2onc(CC3=NCCN3)c2c1 [Test compound 4 (Table 4), 5-Fluoro-3-(2-imidazolin-2-yl)methyl-1,2-benzisoxazole hydrochloride] |  |  |  |  |  | Blood pressure Decrease percent ([1]; 10 mg/kg p.o.): 28%; Blood pressure Duration ([1]; 10 mg/kg p.o.): 30 h; Blood pressure Peak time ([1]; 10 mg/kg p.o.): 7.0 h |
| 6,7-dimethoxy-1,2-benzisoxazole-3-acetamidoxime hydrochloride [Example 7] | 21.0% | 72 h | 5 h |  |  |  |
| CN(C)CCC=C1c2ccccc2CCc2ccccc21 [Amitriptyline, 3-(10,11-Dihydro-5H-dibenzo[a,d]-cyclohepten-5-ylidene)-N,N-dimethylpropylamine, reference compound] |  |  |  | 48.9% |  |  |
| Cl.NC(CCc1noc2ccccc12)=NO [Test compound 6 (Table 1), 1,2-Benzisoxazole-3-propionamidoxime hydrochloride] |  |  |  | 58.1% | 1.12 |  |
| CNC(=N)Cc1noc2ccccc12 [Test compound 5 (Table 3), 1,2-Benzisoxazole-3-(N-methyl)acetamidine hydrochloride] | 19.3% | 24 h | 3 h |  |  |  |
| Cl.N=C(Cc1noc2ccccc12)NN [Test compound 3 (Table 3), 1,2-Benzisoxazole-3-acetamidrazone hydrochloride] | 19.0% | 24 h | 7 h |  |  |  |
| 1,2-Benzisoxazole-3-acetamidoxime [Example 1] |  |  |  | 66.9% | 1.37 | Number of dead mice/number of used mice ([3]; dose 20 mg/kg orally): 1/10; Number of dead mice/number of used mice ([3]; dose 50 mg/kg orally): 3/10; Number of dead mice/number of used mice ([3]; dose 100 mg/kg orally): 7/10; Blood pressure Decrease percent ([1]; 10 mg/kg p.o.): 16%; Blood pressure Duration ([1]; 10 mg/kg p.o.): 24 h; Blood pressure Peak time ([1]; 10 mg/kg p.o.): 5.0 h; Blood pressure Decrease percent (renal hypertensive rats; 3 mg/kg p.o.): 18.2%; Blood pressure Duration (renal hypertensive rats; 3 mg/kg p.o.): 24 h; Blood pressure Peak time (renal hypertensive rats; 3 mg/kg p.o.): 7 h; Blood pressure Decrease percent (renal hypertensive rats; 10 mg/kg p.o.): 36.3%; Blood pressure Duration (renal hypertensive rats; 10 mg/kg p.o.): 30 h; Blood pressure Peak time (renal hypertensive rats; 10 mg/kg p.o.): 7 h; Blood pressure Decrease percent (renal hypertensive rats; 30 mg/kg p.o.): 38.8%; Blood pressure Duration (renal hypertensive rats; 30 mg/kg p.o.): 48 h; Blood pressure Peak time (renal hypertensive rats; 30 mg/kg p.o.): 3 h |
| NC(Cc1noc2ccccc12)=NOC(=O)c1ccccc1 [Test compound 3 (Table 1), O-Benzoyl-1,2-benzisoxazole-3-acetamidoxime] |  |  |  | 57.1% | 1.17 |  |
| COc1ccc2c(CC(N)=NO)noc2c1.Cl [Test compound 5 (Table 1), 6-Methoxy-1,2-benzisoxazole-3-acetamidoxime hydrochloride] |  |  |  | 69.2% | 1.42 |  |
| Cc1cccc2c(CC3=NCCN3)noc12.Cl [Test compound 4 (Table 1), 7-Methyl-3-(2-imidazolin-2-yl)methyl-1,2-benzisoxazole hydrochloride] |  |  |  | 51.9% | 1.06 |  |
| Cl.NC(Cc1noc2ccc(F)cc12)=NO [Test compound 3 (Table 4), 5-Fluoro-1,2-benzisoxazole-3-acetamidoxime hydrochloride] |  |  |  |  |  | Blood pressure Decrease percent ([1]; 1 mg/kg p.o.): 20%; Blood pressure Duration ([1]; 1 mg/kg p.o.): 24 h; Blood pressure Peak time ([1]; 1 mg/kg p.o.): 7 to 8 h; Blood pressure Decrease percent ([1]; 10 mg/kg p.o.): 22%; Blood pressure Duration ([1]; 10 mg/kg p.o.): 24 h; Blood pressure Peak time ([1]; 10 mg/kg p.o.): 7.0 h |
| Cl.Oc1ccc2onc(CC3=NCCN3)c2c1 [Test compound 6 (Table 3), 5-Hydroxy-3-(2-imidazolin-2-yl)methyl-1,2-benzisoxazole hydrochloride] | 56.5% | 30 h | 5 h |  |  |  |
| Cl.NC(Cc1noc2ccccc12)=NO [Test compound 2 (Table 1), 1,2-Benzisoxazole-3-acetamidoxime hydrochloride] |  |  |  | 64.9% | 1.33 |  |
| NC12CC3CC(CC(C3)C1)C2 [Amantadine, 1-aminoadamantane, reference compound] |  |  |  |  |  | Number of dead mice/number of used mice ([3]; dose 100 mg/kg orally): 0/10; Number of dead mice/number of used mice ([3]; dose 200 mg/kg orally): 3/10; Number of dead mice/number of used mice ([3]; dose 300 mg/kg orally): 5/10 |
